The text below walks through data of patent US10669273B2, “Use of aza-tryptanthrin derivatives as inhibitors of IDO1 and/or TDO” (Peking University, priority 2016, dated 2020).

Counter-ions that a name gives are not always drawn. Like-named read-outs stand apart in the source and are kept apart here.

One experiment concerns T cells. The conditions noted are these: cited from earlier work.
The next experiment concerns TNF-α. The conditions noted are these: concentration up to 20 μM; cited from earlier work.
Another experiment deals with IDO-1 (Homo sapiens (Human), UniProt P14902). As to the kind of experiment: Indoleamine-2,3-dioxygenase 1 inhibitory activity (absorbance at 321 nm). The experiment is classed as biochemical.
IDO-1, sequence (P14902 whole entry): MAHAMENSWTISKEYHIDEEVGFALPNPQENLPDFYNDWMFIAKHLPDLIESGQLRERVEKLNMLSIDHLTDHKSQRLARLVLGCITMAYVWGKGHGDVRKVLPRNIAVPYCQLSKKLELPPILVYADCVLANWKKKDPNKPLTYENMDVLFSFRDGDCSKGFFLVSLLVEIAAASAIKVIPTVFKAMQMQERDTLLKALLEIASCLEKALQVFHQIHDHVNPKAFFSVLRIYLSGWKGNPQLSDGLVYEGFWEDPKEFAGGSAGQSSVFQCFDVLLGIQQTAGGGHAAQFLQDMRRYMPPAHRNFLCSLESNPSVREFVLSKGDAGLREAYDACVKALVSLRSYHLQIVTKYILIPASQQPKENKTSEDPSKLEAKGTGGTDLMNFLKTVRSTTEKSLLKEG
The target of the next experiment is TDO (Homo sapiens (Human), UniProt P48775). As to the kind of experiment: Tryptophan-2,3-dioxygenase inhibitory activity (absorbance at 321 nm). The settings on record: read-out: TDO Inhibition rate. The experiment is classed as biochemical. The protocol: Experimental method: TDO can oxidatively cleave the indole ring of tryptophan to form N-formylkynurenine. Referring to the method in the reference (Eddy W. Yue, et al. J. Med. Chem. 2009, 52, 7364-7367), a detection buffer containing 50 nM TDO, 10μM inhibitor, 200μM tryptophan, and the like were sequentially added thereto at room temperature. Due to the formation of N-formylkynurenine, the reaction rate was recorded by the increasing absorbance of the solution at 321 nm. IC50 values were calculated using Prism GraphPad software.
TDO, sequence (P48775 whole entry): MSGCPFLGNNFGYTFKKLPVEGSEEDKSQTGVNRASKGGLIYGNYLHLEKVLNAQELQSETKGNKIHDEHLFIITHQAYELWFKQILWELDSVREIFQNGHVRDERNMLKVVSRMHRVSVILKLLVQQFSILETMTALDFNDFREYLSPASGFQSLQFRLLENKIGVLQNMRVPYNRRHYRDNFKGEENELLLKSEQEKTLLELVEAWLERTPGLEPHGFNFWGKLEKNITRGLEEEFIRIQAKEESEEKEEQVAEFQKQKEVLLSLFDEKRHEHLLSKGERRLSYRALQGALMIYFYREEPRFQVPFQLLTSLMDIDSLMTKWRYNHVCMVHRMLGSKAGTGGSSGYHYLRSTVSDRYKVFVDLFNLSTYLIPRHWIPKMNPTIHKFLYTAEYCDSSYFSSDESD

For the next experiment, the system named is Lewis lung cancer. As to the kind of experiment: Lewis lung cancer in mice, in vivo anti-tumor experiment. The conditions noted are these: intraperitoneal 20 mg/Kg, 11 days. Set-up: species or system C57BL/6J mice.
Experiment [1] deals with melanoma B16. Description: Repeated verification, melanoma B16 in mice experiment. The experiment is classed as in vivo, C57BL/6J mice. The settings on record: intragastric 20 mg/kg once daily, 14 days. The protocol: The in vivo efficacy of compound was tested in three groups (6 in each group) of C57BL/6J mice bearing melanoma B16. CY-1-26 hydrochloride was intragastrically administered at 20 mg/kg (suspended in 0.5% sodium carboxymethyl cellulose solution), and 1-MT was a positive control (200 mg/kg, suspended in 0.5% sodium carboxymethyl cellulose solution), the blank control was 0.5% sodium carboxymethyl cellulose solution, all once daily dose. On the day of the first dose, the relevant indicators were observed, measured and recorded. At the end of the experiment, the tumor-bearing mice were sacrificed and the tumor pieces were dissected and weighed.
The tumor-bearing mice were administered by continuous intragastric administration for 14 days. The body weight of the animals in the drug-administered group was slightly slower than that of the negative control group. The animals were in good condition and no obvious side effects were observed.
After 14 days of administration, the animals were euthanized, the subcutaneous tumors were dissected, weighed, and the animals were dissected for gross observation.

Experiment [2] relates to melanoma B16. As to the kind of experiment: Melanoma B16 in mice experiment. The conditions noted are these: intragastric once daily, 10 days; CY-1-26 20 mg/kg, 1-MT 200 mg/kg. The experiment is classed as in vivo, C57BL/6J mice. The protocol:
The in vivo efficacy of compound was tested with C57BL/6J mice bearing melanoma B16. The intragastric administration was 20 mg/kg, and 1-MT was a positive control (200 mg/kg), which was once daily. The observation and measurement were started on the day of the first administration, and the relevant indicators were recorded. The tumor-bearing mice were sacrificed at the end of the experiment, and the tumor pieces were dissected and weighed.
The tumor-bearing mice were administered by continuous intragastric administration for 10 days. The body weight of the animals in the drug-administered group was slightly slower than that of the negative control group. The animals were in good condition and no obvious side effects were observed.
After 10 days of administration, the animals were euthanized, the subcutaneous tumors were dissected, weighed, and the animals were dissected for gross observation.

[3] abbreviates: 20 nM IDO-1, 2 mM D-tryptophan, read-out: IDO-1 inhibitory activity, IC50.
The mark [4] stands for this setting: Table 1, comparison with tryptanthrins 5a, 5b, 5c, 5i, read-out: Comparison of inhibitory activity of the IDO1, IC50.
Where [5] appears, read: compound at 10 μM, 50 nM TDO, 200 μM tryptophan.

Procedure for IDO-1: Experimental method: IDO-1 can oxidatively cleave the indole ring of tryptophan to form N-formylkynurenine. Referring to the method in the literature (Eddy W. Yue, et al. J. Med. Chem. 2009, 52, 7364-7367), 20 nM IDO-1, 2 mM D-tryptophan, 20 mM ascorbic acid, 3.5M methyl blue and 0.2 mg/mL antioxidant enzyme were sequentially added to 50 mM potassium phosphate buffer at room temperature. Due to the formation of N-formylkynurenine, the reaction rate was recorded by the increasing absorbance of the solution at 321 nm. IC50 values were calculated using Prism GraphPad software.
Procedure for Lewis lung cancer: The observation and measurement were started on the day of the first administration, and the relevant indicators were recorded. The tumor-bearing mice were sacrificed at the end of the experiment, and the tumor pieces were dissected and weighed. The tumor-bearing mice were administered intraperitoneally for 11 days. […] After 11 days of continuous intraperitoneal injection of tumor-bearing mice, the animals were euthanized, the subcutaneous tumors were dissected, weighed, photographed, and the animals were dissected for gross observation.

As for `O=C1c2cc(F)ccc2-n2c1nc1ccccc1c2=O`, in the experiment with T cells, the “proliferation of T cells” value was “can promote the proliferation of T cells”.
As to `O=C1c2cc([N+](=O)[O-])ccc2-n2c1nc1cccnc1c2=O` [8-nitro-1-aza-tryptanthrin], the “activity in production of TNF-α” value in the experiment with TNF-α is reported as “did not exhibit activity”.
Turning to `O=C1c2ccccc2-n2c1nc1ncccc1c2=O` [CY-1-1, pyrido[2′,3′:4,5]pyrimido[1,2-α]indole-5,11-dione], the figures for the IC50 at IDO-1 (setting [3]) and on IDO-1 (setting [4]) were 110 to 1000 nM and 100 to 1000 nM, respectively.
With `O=C1c2cc(F)ccc2-n2c1nc1ncccc1c2=O` [CY-1-2, 9-fluoropyrido[2′,3′:4,5]pyrimido[1,2-c]indole-5,11-dione], the inhibition (usually the relative decrease from the control value, in per cent) at 10 µM on TDO (setting [5]) was 44%.
On to `O=C1c2cc(OC(F)(F)F)ccc2-n2c1nc1ncccc1c2=O` [CY-1-3, 9-(trifluoromethoxy)pyrido[2′,3′:4,5]pyrimido[1,2-c]indole-5,11-dione], for which, at TDO (setting [5]), the inhibition at 10 µM came out at 16%.
In the case of `O=C1c2cc([N+](=O)[O-])ccc2-n2c1nc1ncccc1c2=O` [CY-1-4, 9-nitropyridine[2′,3′:4,5]pyrimido[1,2-c]indole-5,11-dione], the inhibition at 10 µM at TDO turned out to be 97%.
Take `O=C1c2cc(Cl)ccc2-n2c1nc1ncccc1c2=O` [CY-1-5, 9-chloropyrido[2′,3′:4,5]pyrimido[1,2-c]indole-5,11-dione]: the inhibition at 10 µM on TDO (setting [5]) was found to be 35%.
As for `COc1ccc2c(c1)C(=O)c1nc3ncccc3c(=O)n1-2` [CY-1-6, 9-methoxypyrido[2′,3′:4,5]pyrimido[1,2-c]indole-5,11-dione], the 50% inhibitory concentration (IC50) (commonly the midpoint of a concentration-inhibition curve) at IDO-1 (setting [3]) lay in the range of 110 to 1000 nM.
Regarding `Cc1ccc2c(c1)C(=O)c1nc3ncccc3c(=O)n1-2` [CY-1-7, 9-methylpyrido[2′,3′:4,5]pyrimido[1,2-c]indole-5,11-dione], the results for the concentration for half-maximal inhibition (IC50) on IDO-1 (setting [3]) and at IDO-1 (setting [4]) were 110 to 1000 nM and 100 to 1000 nM, respectively.
Turning to `O=C1c2ccccc2-n2c1nc1cnccc1c2=O` [CY-1-8, pyrido[3′,4′:4,5]pyrimido[1,2-c]indole-5,11-dione], the half-inhibitory concentration (IC50) at IDO-1 (setting [3]) was 110 to 1000 nM; at IDO-1 (setting [4]), 100 to 1000 nM.
As to `COc1ccc2c(c1)C(=O)c1nc3cnccc3c(=O)n1-2` [CY-1-9, 9-methoxypyrido[3′,4′:4,5]pyrimido[1,2-c]indole-5,11-dione], on IDO-1 (setting [3]), the 50% inhibitory concentration (IC50) lay within 1100 to 10000 nM.
In the case of `O=C1c2cc(Cl)ccc2-n2c1nc1cnccc1c2=O` [CY-1-10, 9-chloropyrido[3′,4′: 4,5]pyrimido[1,2-α]indole-5,11-dione], the concentration for half-maximal inhibition (IC50) at IDO-1 (setting [3]) fell in the range of 110 to 1000 nM. In addition, the inhibition at 10 µM at TDO was 8%.
Turning to `O=C1c2cc(F)ccc2-n2c1nc1cnccc1c2=O` [CY-1-11, 9-fluoropyrido[3′,4′:4,5]pyrimido[1,2-α]indole-5,11-dione], the IC50 at IDO-1 (setting [3]) lay within 110 to 1000 nM; on IDO-1 (setting [4]), 100 to 1000 nM.
On to `O=c1c2cccnc2nc2n1-c1ccccc1C2=NO` [CY-1-12, 11-(hydroxyimino)pyrido[2′,3′:4,5]pyrimido[1,2-α]indol-5(11H)-one], for which the 50% inhibitory concentration (IC50) on IDO-1 (setting [3]) is 1100 to 10000 nM.
Turning to `O=c1c2cccnc2nc2n1-c1ccc(Cl)cc1C2=NO` [CY-1-13, 9-chloro-11-(hydroxyimino)pyrido[2′,3′:4,5]pyrimido[1,2-α]indole-5(11H)-one], the half-maximal inhibitory concentration (IC50) at IDO-1 (setting [3]) lay in the range of 110 to 1000 nM. At TDO (setting [5]), the inhibition at 10 µM came to 6%.
With `Cc1ccc2c(c1)C(=NO)c1nc3ncccc3c(=O)n1-2` [CY-1-14, 11-(hydroxyimino)-9-methylpyrido[2′,3′: 4,5]pyrimido[1,2-α]indole-5 (11H)-one], the IC50 on IDO-1 (setting [3]) was 1100 to 10000 nM.
Still for that read-out and setting: the value for `COc1ccc2c(c1)C(=NO)c1nc3ncccc3c(=O)n1-2` [CY-1-15, 11-(hydroxyimino)-9-methoxypyrido[2′,3′:4,5]pyrimido[1,2-α]indole-5(11H)-one] was 1100 to 10000 nM; that for `CN(C)CCON=C1c2ccccc2-n2c1nc1ncccc1c2=O` [CY-1-16, 11-((2-(dimethylamino)ethoxy)imino)pyrido[2′,3′:4,5]pyrimido[1,2-α]indole-5(11H)-one] was 110 to 1000 nM.
With `CN(C)CCON=C1c2cc([N+](=O)[O-])ccc2-n2c1nc1ncccc1c2=O` [CY-1-17, 11-((2-(dimethylamino)ethoxy)imino)-9-nitropyrido[2′,3′:4,5]pyrimido[1,2-α]indol-5(11H)-one], on TDO (setting [5]), the inhibition at 10 µM came out at 64%. Moreover, the “tumor inhibition rate (tumor weight)” value in the experiment on Lewis lung cancer came out at 51.8%.
As to `CN(C)CCON=C1c2cc(Cl)ccc2-n2c1nc1ncccc1c2=O` [CY-1-18, 9-chloro-11-((2-(dimethylamino)ethoxy)imino)pyrido[2′,3′:4,5]pyrimido[1,2-α]indol-5(11H)-one], the IC50 on IDO-1 (setting [3]) is 110 to 1000 nM.
Take `CN(C)CCON=C1c2cc(F)ccc2-n2c1nc1ncccc1c2=O` [CY-1-19, 11-((2-(dimethylamino)ethoxy)imino)-9-fluoropyrido[2′,3′:4,5]pyrimido[1,2-α]indol-5(11H)-one]: at IDO-1 (setting [3]), the 50% inhibitory concentration (IC50) lay in the range of 110 to 1000 nM.
On the same count and under the same terms, with `CN(C)CCCON=C1c2cc(Cl)ccc2-n2c1nc1ncccc1c2=O` [CY-1-20, 9-chloro-11-((3-(dimethylamino)propoxy)imino)pyrido[2′,3′:4,5]pyrimido[1,2-α]indol-5(11H)-one] the figure was 1100 to 10000 nM; with `O=c1c2cccnc2nc2n1-c1ccc([N+](=O)[O-])cc1C2=NOCCO` [CY-1-21, 11-((2-hydroxyethoxy)imino)-9-nitropyrido[2′,3′:4,5]pyrimido[1,2-α]indol-5(11H)-one], 110 to 1000 nM.
As for `N=C(N)NN=C1c2cc([N+](=O)[O-])ccc2-n2c1nc1ncccc1c2=O` [CY-1-23, 2-(9-nitro-5-oxopyrido[2′,3′:4,5]pyrimido[1,2-c]indol-11(5H)-ylidene)hydrazine-1-carboximidamide], on TDO, the inhibition at 10 µM stood at 86%.
Consider `O=c1c2cccnc2nc2n1-c1ccc([N+](=O)[O-])cc1C2=NOS(=O)(=O)O` [CY-1-24, (((9-nitro-5-oxopyrido[2′,3′:4,5]pyrimido[1,2-α]indol-11(5H)-ylidene)amino)oxy) sulfonic acid], for which the concentration for half-maximal inhibition (IC50) at IDO-1 (setting [3]) lay within 110 to 1000 nM.
Still for that read-out and setting: with `CON=C1c2cc([N+](=O)[O-])ccc2-n2c1nc1ncccc1c2=O` [CY-1-25, 11-(methoxyimino)-9-nitropyrido[2′,3′: 4,5]pyrimido[1,2-α]indol-5 (11H)-one] the figure was 110 to 1000 nM.
For `CCON=C1c2cc([N+](=O)[O-])ccc2-n2c1nc1ncccc1c2=O` [CY-1-26 hydrochloride], the “tumor inhibition rate (tumor weight)” value in the experiment with melanoma B16 [1] turned out to be 46.0%.
With `CCON=C1c2cc([N+](=O)[O-])ccc2-n2c1nc1ncccc1c2=O` [CY-1-26, 11-(ethoxyimino)-9-nitropyrido[2′,3′:4,5]pyrimido[1,2-α]indol-5(11H)-one], the IC50 at IDO-1 (setting [3]) lay in the range of 1100 to 10000 nM. Further, the “tumor inhibition rate (tumor weight)” value with melanoma B16 [2] is given as 33.0%.
With `C=CCON=C1c2cc([N+](=O)[O-])ccc2-n2c1nc1ncccc1c2=O` [CY-1-27, 11-((allyloxy)imino)-9-nitropyrido[2′,3′:4,5]pyrimido[1,2-α]indol-5(11H)-one], the IC50 on IDO-1 (setting [3]) lay in the range of 1100 to 10000 nM.
Turning to `NC(=S)NN=C1c2cc([N+](=O)[O-])ccc2-n2c1nc1ncccc1c2=O` [CY-1-29, 2-(9-nitro-5-oxopyrido[2′,3′:4,5]pyrimido[1,2-c]indol-11(5H)-ylidene)hydrazine-1-carbothioamide], at TDO (setting [5]), the inhibition at 10 µM came to 93%.
In the case of `COc1ccc2c(c1)C(=NNC(=S)N(C)C)c1nc3ncccc3c(=O)n1-2` [CY-1-30, 2-(9-methoxy-5-oxopyrido[2′,3′:4,5]pyrimido[1,2-α]indol-11(5H)-ylidene)-N,N-di methyl-hydrazine-1-carbothioamide], the 50% inhibitory concentration (IC50) at IDO-1 (setting [3]) lay in the range of 1100 to 10000 nM.
`Cn1cc(CC(N)C(=O)O)c2ccccc21` (centres unmarked) [Compound 1-MT, reference compound]: in the experiment with melanoma B16 [2], the “tumor inhibition rate (tumor weight)” value stood at 26.3%.
On to `O=P1(N(CCCl)CCCl)NCCCO1` (centres unmarked) [cyclophosphamide, reference compound], for which, in the experiment on Lewis lung cancer, the “tumor inhibition rate (tumor weight)” value is on record as 29.9%.
